These results are taken from ChEMBL document CHEMBL1125936, “Synthesis and biological evaluation of 4-purinylpyrrolidine nucleosides” (J Med Chem, 1991).

Assay [1] addresses Adenosine deaminase (Bos taurus) (UniProt P56658). Kind of assay: Binding affinity towards adenosine deaminase.
Another assay concerns Tumor Cell line. In words: The compound was tested for inhibitory activity against panel of human tumor cell lines; Range = 0.08-14.02 uM. Type of assay: functional, cell-based.
Assay [2] has as its system Human immunodeficiency virus. In words: The compound was tested for anti-HIV activity; Range = 5.0-15.0 uM. Conditions: Human immunodeficiency virus 1; read-out: ED50 (the source's name). Type of assay: functional.

Sequence of Adenosine deaminase (Bos taurus) (P56658 whole entry, looked up): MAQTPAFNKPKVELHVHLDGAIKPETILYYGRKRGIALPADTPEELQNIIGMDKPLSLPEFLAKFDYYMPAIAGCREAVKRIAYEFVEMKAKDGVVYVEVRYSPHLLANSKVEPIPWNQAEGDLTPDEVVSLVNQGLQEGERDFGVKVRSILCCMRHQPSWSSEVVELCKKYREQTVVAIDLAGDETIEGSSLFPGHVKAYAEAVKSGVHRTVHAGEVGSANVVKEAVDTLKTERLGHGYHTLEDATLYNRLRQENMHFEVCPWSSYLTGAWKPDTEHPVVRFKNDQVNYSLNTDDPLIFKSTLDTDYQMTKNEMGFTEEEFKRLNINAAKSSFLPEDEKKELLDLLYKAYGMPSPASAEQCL

In general, Ki refers to the dissociation constant of the complex between target and ligand, obtained from inhibition or displacement. A higher Ki goes with weaker binding. In turn, `Nc1ncnc2c1ncn2[C@H]1CN[C@@H](CO)C1` came in with a Ki in assay [1] of 85 µM.

One may read the IC50 as the concentration at which inhibition is half-maximal. The low end stands for inhibition by little substance, the high end for a need for much substance. In turn, `Cc1cn([C@@H]2C[C@H](CO)N(O)C2)c(=O)[nH]c1=O` gave an IC50 with Tumor Cell line of 0.08 µM.

Turning to `Nc1ncnc2c1ncn2[C@H]1CO[C@@H](CO)C1`, the EC50 in assay [2] amounted to 5 µM.
